In patent publication US20240148895A1, “ANTIBODY-DRUG CONJUGATE” (Eisai R&D Management Co., Ltd., priority 2022, published 2024) one finds IC50 and DC50 data, which are given here for seven molecules.

Assay [1] deals with AsPC-1/Cas9 cell line. The assay can be described thus: AsPC-1/Cas9 growth inhibition assay. Format: cell-based, human. The settings on record: AsPC-1/Cas9 cells, 5 days culture, CellTiter Glo 2.0, read-out: Absolute IC50—Day 5 (nM) AsPC-1 Cas9. The method, then: The human pancreatic cancer cell line AsPC-1 (ATCC Number CRL1682) was infected with Edit-R Lentiviral hCMV-Blast-Cas9 Nuclease Particle (Dharmacon, VCAS10124) in the presence of 8 μg/ml of Hexadimethrine bromide (Sigma, H9268), and after 24 hours it was exposed to 10 μg/ml of Blastcidin S (Thermo, A11139) to remove the uninfected cells, thereby establishing an AsPC-1/Cas9 cell line. The cells were maintenance cultured in a 5% CO2 incubator (37° C.) using RPMI-1640 (FujiFilm-Wako Pure Chemical Industries) containing 10% fetal bovine serum (FBS: SIGMA 173012) and penicillin/streptomycin (FujiFilm-Wako Pure Chemical Industries) (hereunder referred to simply as “culture medium”). After adding 45 μL of AsPC-1/Cas9 cell suspension prepared to 2.0×10^4 cells/mL using culture medium into each well of a 384-well plate (Greiner 781091), the cells were cultured overnight in a 5% CO2 incubator (37° C.). On the following day, 5 μL of the test substance diluted with culture medium was added to each well, and culturing was continued for 5 days in a 5% CO2 incubator (37° C.). Next, 25 μL of CellTiter Glo™ 2.0 (Promega) was added to each well, and the plate contents were mixed for 5 minutes using a plate mixer. The plate was stationed for 10 minutes at room temperature while shielded from light, and then the luminous intensity was measured with an ENVISION™ (Perkin-Elmer). The luminescence value of the wells with addition of test substance was determined as a relative value, with 100% as the luminescence value of the wells with cells but without addition of the test substance, and 0% as the luminescence value of the wells without cells. A plot of test substance concentration against luminescence value % approximated a 4-parameter logistic curve, and the test substance concentration necessary for 50% inhibition of cell growth (Absolute IC50) was calculated, and is shown in Table 4.
On the technique in general: ATP-based viability assays read luminescence as a measure of living cells.

For assay [2], the target named is HiBiT tagged BRD4-BD1 protein in HEK293/LgBiT/hPGK/HiBiT-BRD4-BD1 cells (Homo sapiens, UniProt O60885). Put plainly: BET BD1 domain degradation assay. The class given is cell-based. Also noted: HiBit-linker-BRD4 BD1(1-209); host or cells: HEK293 (ATCC CRL-1573) stably transduced with LgBiT and HiBiT-BRD4-BD1. The settings on record: concentration for 50% reduction in HiBiT-BRD4-BD1 protein level, 3 hours, read-out: Absolute DC50—3 h (nM) HEK293_HiBiT-BRD4-BD1. From the text:
HEK293/LgBiT/hPGK/HiBiT-BRD4-BD1 cells were established by introducing LgBiT and HiBiT-BRD4-BD1 into the human fetus renal cell line HEK293 (ATCC Number CRL-1573). LgBiT was introduced using lentivirus vector LV[Exp]-Bsd-EFS>{LgBiT}, and HiBiT-BRD4-BD1 was introduced with lentivirus vector LV[Exp]-Puro-hPGK>{HiBit-linker-BRD4 BD1(1-209)}. The vector plasmids LV[Exp]-Bsd-EFS>{LgBiT} and LV[Exp]-Puro-hPGK>{HiBit-linker-BRD4_BD1(1-209)} were constructed by VectorBuilder Co. The lentivirus was produced using a Mission Lentivirus Packaging Mix (Sigma) according to the manufacturer's protocol. Viral infection and drug selection of infected cells were carried out by the following published method (Akagi T. et. al, PNAS 2003; 100:13567-72). The cells were maintenance cultured in a 5% CO2 incubator (37° C.), using culture medium. A 45 μL portion of cell suspension of HEK293/LgBiT/hPGK/HiBiT-BRD4-BD1 cells prepared to 6.7×10^4 cells/mL using culture medium was added to each well of a collagen I-coated 384-well plate (Falcon 356667), and the cells were cultured overnight in a 5% CO2 incubator (37° C.). On the following day, 5 μL of test substance diluted with RPMI-1640 (FujiFilm-Wako Pure Chemical Industries) containing 10% fetal bovine serum (FBS: SIGMA 173012) and penicillin/streptomycin (FujiFilm-Wako Pure Chemical Industries) was added to each well, and culturing was continued for 3 hours in a 5% CO2 incubator (37° C.). The luminous intensity was measured using a Nono-Glo HiBiT Lytic Detection System (Promega), and the intracellular HiBiT tagged BRD4-BD1 protein level was calculated. After culturing, 25 μL of measuring reagent was added to each well and the plate contents were mixed for 5 minutes using a plate mixer. The plate was stationed for 10 minutes at room temperature while shielded from light, and then the luminous intensity was measured with an ENVISION′ (Perkin-Elmer). The luminescence value of the wells with addition of test substance was determined as a relative value, with 100% as the luminescence value of the wells with cells but without addition of the test substance, and 0% as the luminescence value of the wells without cells. A plot of test substance concentration against luminescence value % approximated a 4-parameter logistic curve, and the test substance concentration necessary for 50% reduction in protein level (Absolute DC50) was calculated and is shown in Table 4.
(The HiBiT peptide binds its large partner to form an active luciferase.)

For assay [3], the system named is AsPC-1/Cas9 cell line (human pancreatic cancer cell line AsPC-1). The assay can be described thus: AsPC-1/Cas9 growth inhibition assay. The class given is cell-based. The settings on record: 5 days culture, CellTiter Glo 2.0, read-out: IC50 (Absolute IC50, 50% inhibition of cell growth). The method, then: Human pancreatic cancer cell line AsPC-1 (ATCC Number CRL1682) was infected with Edit-R Lentiviral hCMV-Blast-Cas9 Nuclease Particle (Dharmacon, VCAS10124) in the presence of 8 μg/ml of Hexadimethrine bromide (Sigma, H9268), and after 24 hours it was exposed to 10 μg/ml of Blastcidin S (Thermo, A11139) to remove the uninfected cells, thereby establishing an AsPC-1/Cas9 cell line. The cells were maintenance cultured in a 5% CO2 incubator (37° C.) using RPMI-1640 (FujiFilm-Wako Pure Chemical Industries) containing 10% fetal bovine serum (FBS: SIGMA 173012) and penicillin/streptomycin (FujiFilm-Wako Pure Chemical Industries) (hereunder referred to simply as “culture medium”). After adding 25 μL of AsPC-1/Cas9 cell suspension prepared to 3.2×10^4 cells/mL using culture medium into each well of a 384-well plate (Greiner 781091), the cells were cultured overnight in a 5% CO2 incubator (37° C.). On the following day, 25 μL of the test substance diluted with culture medium was added to each well, and culturing was continued for 5 days in a 5% CO2 incubator (37° C.). Next, 25 μL of CellTiter Glo™ 2.0 (Promega) was added to each well, and the plate contents were mixed for 5 minutes using a plate mixer. The plate was stationed for 10 minutes at room temperature while shielded from light, and then the luminous intensity was measured with an ENVISION™ (Perkin-Elmer). The luminescence value of the wells with addition of test substance was determined as a relative value, with 100% as the luminescence value of the wells with cells but without addition of the test substance and 0% as the luminescence value of the wells without cells. A plot of test substance concentration against luminescence value % approximated a 4-parameter logistic curve, and the test substance concentration necessary for 50% inhibition of cell growth (Absolute IC50) was calculated, and is shown in Table 10. In Table 10, the antibodies listed as “CEACAM6_#84.7” are the anti-CEACAM6 antibody of Example 301-1, the antibodies listed as “003” are the anti-folate receptor α antibody of Example 301-2, and the antibodies listed as “345A12” are the anti-mesothelin antibody of Example 301-3.
According the same method as in the AsPC-1/Cas9 growth inhibition assay described in Example 313 above, the test substance concentration necessary for 50% inhibition of cell growth (Absolute IC50) in the ADC described in Example 318 was calculated and is shown in Table 12.

Read-outs that look alike come from different tables or passages of the source.

As for `COc1ccc(C(=O)NC2(C)CCN(C3CCN(c4nc([C@@](CO)(OC5CC5)c5ccccc5)c5cc(-c6cn(C)c(=O)c7[nH]ccc67)ccc5n4)CC3)CC2)cc1N1CCC(=O)NC1=O` (stereo in doubt) [Example 104, N-(1′-(4-(1-Cyclopropoxy-2-hydroxy-1-phenylethyl)-6-(6-methyl-7-oxo-6,7-dihydro-1H-pyrrolo[2,3-c]pyridin-4-yl)quinazolin-2-yl)-4-methyl-[1,4′-bipiperidin]-4-yl)-3-(2,4-dioxotetrahydropyrimidine-1(2H)-yl)-4-methoxybenzamide], the IC50 (as a rule, the concentration at which inhibition is half-maximal) in assay [1] (Homo sapiens, ASPC1, 120 h) came to 0.073 nM. Further, in assay [2], the DC50 (as a rule, the midpoint of the concentration-degradation curve) was 0.15 nM.
Regarding `COc1ccc(C#CCNC2(C)CCN(C3CCN(c4nc(C(CO)(OC5CC5)c5ccccc5)c5cc(-c6cn(C)c(=O)c7[nH]ccc67)ccc5n4)CC3)CC2)cc1N1CCC(=O)NC1=O` (stereo in doubt) [Example 145, (R)-1-(5-(3-((1′-(4-(1-Cyclopropoxy-2-hydroxy-1-phenylethyl)-6-(6-methyl-7-oxo-6,7-dihydro-1H-pyrrolo[2,3-c]pyridin-4-yl)quinazolin-2-yl)-4-methyl-[1,4′-bipiperidin]-4-yl)amino)prop-1-yn-1-yl)-2-methoxyphenyl)dihydropyrimidine-2,4(1H,3H)-dione], the IC50 in assay [1] is 0.18 nM. In assay [2], the DC50 came out at 0.045 nM.
With `Cc1cc(-c2ccc3nc(N)nc(C(CO)(Cc4ccccc4)c4ncccn4)c3c2)cn(C)c1=O` (stereo not shown) [Example 24, 5-(2-Amino-4-(1-hydroxy-3-phenyl-2-(pyrimidin-2-yl)propan-2-yl)quinazolin-6-yl)-1,3-dimethylpyridin-2(1H)-one], the 50% inhibitory concentration (IC50) in assay [3] came out at 0.043 nM.
As to `COc1ccc(C#CCNC2(C)CCN(C3CCN(c4nc([C@@](CO)(OC5CC5)c5ccccc5)c5cc(-c6cn(C)c(=O)c7[nH]ccc67)ccc5n4)CC3)CC2)cc1N1CCC(=O)NC1=O` [Example 101, (S)-1-(5-(3-((1′-(4-(1-Cyclopropoxy-2-hydroxy-1-phenylethyl)-6-(6-methyl-7-oxo-6,7-dihydro-1H-pyrrolo[2,3-c]pyridin-4-yl)quinazolin-2-yl)-4-methyl-[1,4′-bipiperidin]-4-yl)amino)prop-1-yn-1-yl)-2-methoxyphenyl)dihydropyrimidine-2,4(1H,3H)-dione], in assay [1], the IC50 is 0.087 nM. In assay [2], the 50% degradation concentration (DC50) stood at 0.083 nM.
With `Cn1cc(-c2ccc3nc(N4CC(OC5CCN(C(=O)c6cccc(N7CCC(=O)NC7=O)c6)CC5)C4)nc([C@@](CO)(OC4CC4)c4ccccc4)c3c2)c2cc[nH]c2c1=O` [Example 103, (S)-1-(3-(4-((1-(4-(1-Cyclopropoxy-2-hydroxy-1-phenylethyl)-6-(6-methyl-7-oxo-6,7-dihydro-1H-pyrrolo[2,3-c]pyridin-4-yl)quinazolin-2-yl)azetidin-3-yl)oxy)piperidine-1-carbonyl)phenyl)dihydropyrimidine-2,4(1H,3H)-dione], the IC50 in assay [1] (Homo sapiens, ASPC1, 120 h) was 0.073 nM. In addition, the DC50 in assay [2] was determined as 0.045 nM.
Consider `COc1ccc(C(=O)NC2(C)CCN(CC3CCN(c4nc(C(CO)(OC5CC5)c5ccccc5)c5cc(-c6cn(C)c(=O)c7occc67)ccc5n4)CC3)CC2)cc1N1CCC(=O)NC1=O` (stereo not shown) [Example 108, N-(1-((1-(4-(1-Cyclopropoxy-2-hydroxy-1-phenylethyl)-6-(6-methyl-7-oxo-6,7-dihydrofuro[2,3-c]pyridin-4-yl)quinazolin-2-yl)piperidin-4-yl)methyl)-4-methylpiperidin-4-yl)-3-(2,4-dioxotetrahydropyrimidine-1(2H)-yl)-4-methoxybenzamide], for which the IC50 in assay [1] (Homo sapiens, ASPC1, 120 h) stood at 0.23 nM. Besides, in assay [2], the DC50 came to 0.21 nM.
The matching figures for `COc1ccc(C(=O)N2C[C@H](C)N(C3CCN(c4nc([C@@](CN)(OC5CC5)c5ccccc5)c5cc(-c6cn(C)c(=O)c7[nH]ccc67)ccc5n4)CC3)C[C@H]2C)cc1N1CCC(=O)NC1=O` [Example 114, 1-(5-((2R,5 S)-4-(1-(4-((R)-2-Amino-1-cyclopropoxy-1-phenylethyl)-6-(6-methyl-7-oxo-6,7-dihydro-1H-pyrrolo[2,3-c]pyridin-4-yl)quinazolin-2-yl)piperidin-4-yl)-2,5-dimethylpiperazine-1-carbonyl)-2-methoxyphenyl)dihydropyrimidine-2,4(1H,3H)-dione]: 0.11 nM and 0.33 nM.
